Results as given in patent US10010492B2, “Methods and compositions for treating skin to resolve inflammation and screening for actives that stimulate pro-resolution pathways” (ELC Management LLC, priority 2015, dated 2018).

Legend:
[1] = test system: Pro-Resolving Lipid Mediator Markers 15-HETE, 12-HETE, 14-HDOHE, 18-HEPE, and 17-HDOHE; assay: Pro-Resolving Lipid Mediator Markers in the aggregate, PMA/A23187-stimulated neutrophils, LC-MS/MS; type: cell-based, human
Description: (§1) Ingredients were tested to assess the ability to promote Pro-Resolution Pathway Stimulators in human neutrophils. The following Inflammatory Metabolites were measured:
(§2) PGE2 and LTB4. The Inflammatory Metabolite Marker, 5-HETE, was measured. Also measured were the Pro-Resolving Lipid Mediator Markers 15-HETE, 12-HETE, 14-HDOHE, 18-HEPE, and 17-HDOHE. PGE2, LTB4, and 5-HETE are indicators of inflammation. Increases in cellular secretion of PGE2, LTB4, or 5-HETE are seen in response to inflammation precipitating conditions. Active ingredients that cause a reduction in cellular concentration of PGE2, LTB4, or 5-HETE are anti-inflammatory in nature. Cellular secretion of Pro-Resolving Lipid Mediators occurs in the inflammation resolution phase. Active ingredients that stimulate cellular secretion of Pro-Resolving Lipid Mediators (as measured by measuring Pro-Resolving Lipid Mediator Markers) help to promote resolution of inflammation.
(§3) Then, the inflammatory response was initiated by adding an inflammation precipitating ingredient, in particular PMA/[…] which is a mixture of 5-(methylamino)-2-({(2R,3R,6S,8S,9R,11R)-3,9,11-trimethyl-8-[(1S)-1-methyl-2-oxo-2-(1H-pyrrol-2-yl)ethyl]-1,7-dioxaspiro[5.5]undec-2-yl}methyl)-1,3-benzoxazole-4-carboxylic acid and PMA (phorbol myristate acetate), at a concentration of 0.05 μm and 1 μm respectively to each well. After one hour the supernatants were collected and stored at −80° C. until assayed.
(§4) Cell supernatants were assayed for Inflammatory Metabolites (PGE2, LBT4), Inflammatory Metabolite Markers (5-HETE), and Pro-Resolving Lipid Mediator Markers 15-HETE, 12-HETE, 14-HDOHE, 18-HEPE, and 17-HDOHE. More specifically, analysis was performed by extraction using an Oasis HLB 96-well plate (Waters) according to manufacturer's directions.
(§5) Suitable Pro-Resolving Activators are ingredients that show an increase in cellular concentration of Pro-Resolving Lipid Mediator Markers 15-HETE, 12-HETE, 14-HDOHE, 18-HEPE, and 17-HDOHE alone or in combination, when cells exposed to an inflammation precipitating condition either before or after exposure to the active.

[2] = test system: Inflammatory Metabolites (PGE2, LTB4) and Inflammatory Metabolite Marker (5-HETE); assay: Inflammatory Metabolites and Inflammatory Metabolite Markers in the aggregate, PMA/A23187-stimulated neutrophils, LC-MS/MS; type: cell-based, human; conditions: for net decrease in cellular concentration of Inflammatory Metabolites and Inflammatory Metabolite Markers vs control: human neutrophils pre-treated 24 h, then PMA/A23187
Description: as §1, §2, §3, §4, §5

## Oc1ccc(C=Cc2cc(O)cc(O)c2)cc1 [resveratrol]
[1]; 0.1 ug/ml
  % change of Pro-Resolving Lipid Mediator Markers in the aggregate compared to control: −27%
[1]; 1 ug/ml
  % change of Pro-Resolving Lipid Mediator Markers in the aggregate compared to control: −16%
[1]; 10 ug/ml
  % change of Pro-Resolving Lipid Mediator Markers in the aggregate compared to control: −10%
[2]; 0.1 ug/ml
  decrease in Inflammatory Metabolites and Markers in the aggregate vs control: 45%
[2]; 1 ug/ml
  decrease in Inflammatory Metabolites and Markers in the aggregate vs control: 59%
[2]; 10 ug/ml
  decrease in Inflammatory Metabolites and Markers in the aggregate vs control: 106%

## O=C(O)c1ccccc1O [salicylic acid]
[1]; 0.33 ug/ml
  change in cellular concentration of Pro-Resolving Lipid Mediators vs control: small increase
[1]; 3.3 μg/ml
  change in cellular concentration of all Pro-Resolving Lipid Mediator Markers in the aggregate vs control: decreased
[1]; 33 μg/ml
  change in cellular concentration of all Pro-Resolving Lipid Mediator Markers in the aggregate vs control: decreased
[2]; 0.33 μg/ml, aggregate of PGE2, LTB4, 5-HETE
  net decrease in cellular concentration of Inflammatory Metabolites and Inflammatory Metabolite Markers vs control: 29%
[2]; 3.3 μg/ml, aggregate
  net decrease in cellular concentration of Inflammatory Metabolites and Inflammatory Metabolite Markers vs control: 58%
[2]; 33 μg/ml, aggregate
  net decrease in cellular concentration of Inflammatory Metabolites and Inflammatory Metabolite Markers vs control: 46%

## resveratrol salicylate
[1]; 0.43 ug/ml
  increase in cellular concentration of Pro-Resolving Lipid Mediator Markers in the aggregate: not being as effective
[1]; 4.3 ug/ml
  increase in cellular concentration of Pro-Resolving Lipid Mediator Markers in the aggregate: 4%
[1]; 43 ug/ml
  increase in cellular concentration of Pro-Resolving Lipid Mediator Markers in the aggregate: 37%
[2]; 0.43 ug/ml
  decrease in Inflammatory Metabolites and Inflammation Metabolite Markers in the aggregate vs control: 87%
[2]; 4.3 ug/ml
  decrease in Inflammatory Metabolites and Inflammation Metabolite Markers in the aggregate vs control: 163%
[2]; 43 ug/ml
  decrease in Inflammatory Metabolites and Inflammation Metabolite Markers in the aggregate vs control: 257%
